Consider nine compounds from patent publication US9708357B2, “4′-azido, 3′-fluoro substituted nucleoside derivatives as inhibitors of HCV RNA replication” (Riboscience LLC, priority 2011, dated 2017).

The nature of one data set: in vitro. The note with it: human.
Data set [1] relates to HCV genotype 1b subgenomic replicon (2209-23 cells). In words: HCV Replicon assay (Renilla luciferase reporter). In kind it is cell-based. The note with it: Hepatitis C virus, Huh-7, 72 h; genotype 1b replicon, 2209-23 Huh7 cells, three days incubation, Renilla luciferase readout.

Compound `CCOC(=O)[C@H](C)NP(=O)(OC[C@@]1(N=[N+]=[N-])O[C@@H](n2ccc(=O)[nH]c2=O)[C@H](O)[C@@H]1F)Oc1cccc2ccccc12` (stereo partly drawn) [Compound I-3, (S)-2-[[(2R,3S,4S,5R)-2-Azido-5-(2,4-dioxo-3,4-dihydro-2H-pyrimidin-1-yl)-3-fluoro-4-hydroxy-tetrahydro-furan-2-ylmethoxy]-(naphthalen-1-yloxy)-phosphorylamino]-propionic acid ethyl ester] gave a CC50 in “in vitro” above 100 µM. In data set [1], half-maximal inhibition (IC50) was put at 79.1 µM.
In the data set “in vitro”, `C[C@H](NP(=O)(OC[C@@]1(N=[N+]=[N-])O[C@@H](n2ccc(N)nc2=O)[C@H](O)[C@@H]1F)Oc1cccc2ccccc12)C(=O)OCc1ccccc1` (stereo partly drawn) [Compound I-5, (S)-2-[[(2R,3S,4S,5R)-5-(4-Amino-2-oxo-2H-pyrimidin-1-yl)-2-azido-3-fluoro-4-hydroxy-tetrahydro-furan-2-ylmethoxy]-(naphthalen-1-yloxy)-phosphorylamino]-propionic acid benzyl ester] had a CC50 of 91.2 µM. Inhibition in data set [1] was half-maximal at 1.54 µM (IC50).
On the same counts, the results for `CCOC(=O)[C@H](C)NP(=O)(OC[C@@]1(N=[N+]=[N-])O[C@@H](n2ccc(=O)[nH]c2=O)[C@H](O)[C@@H]1F)Oc1ccccc1` (stereo partly drawn) [Compound I-2, (S)-2-{[(2R,3S,4S,5R)-2-Azido-5-(2,4-dioxo-3,4-dihydro-2H-pyrimidin-1-yl)-3-fluoro-4-hydroxy-tetrahydro-furan-2-ylmethoxy]-phenoxy-phosphorylamino}-propionic acid ethyl ester] are above 100 µM and 39.8 µM.
Take `CC(C)OC(=O)[C@H](C)NP(=O)(OC[C@@]1(N=[N+]=[N-])O[C@@H](n2ccc(N)nc2=O)[C@H](O)[C@@H]1F)Oc1cccc2ccccc12` (stereo partly drawn) [Compound I-4, (S)-2-[[(2R,3S,4S,5R)-5-(4-Amino-2-oxo-2H-pyrimidin-1-yl)-2-azido-3-fluoro-4-hydroxy-tetrahydro-furan-2-ylmethoxy]-(naphthalen-1-yloxy)-phosphorylamino]-propionic acid isopropyl ester]: the CC50 in the data set “in vitro” is above 100 µM. In data set [1], this compound registered an IC50 above 100 µM.
As to `CC(C)OC(=O)[C@H](C)NP(=O)(OC[C@@]1(N=[N+]=[N-])O[C@@H](n2ccc(N)nc2=O)[C@H](O)[C@@H]1F)Oc1ccccc1` (stereo partly drawn) [Compound I-7, (S)-2-{[(2R,3S,4S,5R)-5-(4-Amino-2-oxo-2H-pyrimidin-1-yl)-2-azido-3-fluoro-4-hydroxy-tetrahydro-furan-2-ylmethoxy]-phenoxy-phosphorylamino}-propionic acid isopropyl ester], the CC50 in “in vitro” is above 100 µM. The compound further came in with an IC50 in data set [1] of 56 µM.
Regarding `CC(C)OC(=O)[C@H](C)NP(=O)(O)OC[C@@]1(N=[N+]=[N-])O[C@@H](n2ccc(N)nc2=O)[C@H](O)[C@@H]1F` [Compound I-8, (S)-2-{[(2R,3S,4S,5R)-5-(4-Amino-2-oxo-2H-pyrimidin-1-yl)-2-azido-3-fluoro-4-hydroxy-tetrahydro-furan-2-ylmethoxy]-hydroxy-phosphorylamino}-propionic acid isopropyl ester], in “in vitro”, the CC50 is above 100 µM. Besides, the IC50 in data set [1] is above 100 µM.
For `CC(C)OC(=O)[C@H](C)NP(=O)(OC[C@@]1(N=[N+]=[N-])O[C@@H](n2ccc(=O)[nH]c2=O)[C@H](O)[C@@H]1F)Oc1ccccc1` (stereo partly drawn) [Compound I-1, (S)-2-{[(2R,3S,4S,5R)-2-Azido-5-(2,4-dioxo-3,4-dihydro-2H-pyrimidin-1-yl)-3-fluoro-4-hydroxy-tetrahydro-furan-2-ylmethoxy]-phenoxy-phosphorylamino}-propionic acid isopropyl ester], the CC50 in the data set “in vitro” is above 100 µM. In data set [1], this compound displayed an IC50 above 100 µM.
For `CCOC(=O)[C@H](C)NP(=O)(OC[C@@]1(N=[N+]=[N-])O[C@@H](n2ccc(N)nc2=O)[C@H](O)[C@@H]1F)Oc1cccc2ccccc12` (stereo partly drawn) [Compound I-6, (S)-2-[[(2R,3S,4S,5R)-5-(4-Amino-2-oxo-2H-pyrimidin-1-yl)-2-azido-3-fluoro-4-hydroxy-tetrahydro-furan-2-ylmethoxy]-(naphthalen-1-yloxy)-phosphorylamino]-propionic acid ethyl ester], the CC50 in “in vitro” is above 100 µM. Further, in data set [1], half-maximal inhibition (IC50) required 32 µM.
In turn, `CCC(=O)O[C@H]1[C@H](n2ccc(N)nc2=O)O[C@@](COP(=O)(N[C@@H](C)C(=O)OC(C)C)Oc2cccc3ccccc23)(N=[N+]=[N-])[C@H]1F` (stereo partly drawn) [Compound I-9, (S)-2-[[(2R,3S,4S,5R)-5-(4-Amino-2-oxo-2H-pyrimidin-1-yl)-2-azido-3-fluoro-4-propionyloxy-tetrahydro-furan-2-ylmethoxy]-(naphthalen-1-yloxy)-phosphorylamino]-propionic acid isopropyl ester] came in with a CC50 in “in vitro” of 58 µM. In data set [1], this compound showed an IC50 of 27 µM.
